Counter-ions that a name gives are not always drawn.
Target: human Nav1.8 (Homo sapiens (Human), UniProt Q9Y5Y9)
Assay: QPatch 48 HTX voltage-clamp electrophysiology, half inactivation state (V1/2) protocol, HEK293-Nav1.8 cells
Type: cell-based
Settings: HEK293 cells expressing human Nav1.8, human Navβ1 and human TREK1, P2 current; for IC50: read-out: Nav1.8, pIC50 (converted)
Protocol: Human embryonic kidney 293 cells (HEK293) expressing human Nav1.8, human Navβ1 and human TREK1 (HEK293-Nav1.8) were grown in T150 cell culture flasks at 37° C., 5% CO2 incubator. HEK293-Nav1.8 were passaged every 2-3 days when confluency reached 80-90% in T150 cell culture flasks.
Pharmacological assessment of compounds of the invention was performed using the QPatch 48 HTX electrophysiological platform. HEK293-Nav1.8 cells were prepared on the day of use by removing culture media, washing in DPBS, adding Accutase (2 mL to cover the surface, aspirate 1 mL then 1-2 minutes at 37° C.) followed by addition of CHO-SFM II to stop the enzyme digestion and in order to obtain a suspension of 3×10^6 cell/mL.
Compounds of the invention were prepared in an extracellular solution of the following composition: NaCl (145 mM), KCl (4 mM), CaCl2) (2 mM), MgCl (2 mM), HEPES (1 mM), Glucose (10 mM), pH 7.4 with NaOH Osmolality 300 mOsM/L. An intracellular solution of the following composition was used: CsF (115 mM), CsCl (20 mM), NaCl (5 mM), EGTA (10 mM), HEPES (10 mM), Sucrose (20 mM), pH 7.2 with CsOH Osmolality 310 mOsm/L.
Utilizing the voltage-clamp mode in the QPatch 48 HTX system a half inactivation state voltage protocol (V1/2) was used to determine pharmacological activity of compounds of the invention at Nav1.8 ion channels. A V1/2 protocol was utilized with the following voltage steps: a holding voltage of −100 mV was established followed by a 20 ms voltage step to 0 mV (P1), followed by an inactivating voltage step at −46 mV for 8 seconds, followed by a step to −100 mV for 20 ms, before a 20 ms step to 0 mV (P2), then returned to the holding voltage of −100 mV. This voltage protocol was repeated at a frequency of every 15 seconds, the current magnitude was quantified at the P2 step throughout the recording. Inhibition of the measured current amplitude with compounds of the invention was analyzed by fitting a 4-6 points dose-response curve allowing determination of the fifty percent inhibition concentration (IC50). P2 currents were normalized according to measurements made at baseline (Baseline, vehicle only), after compound (Input, at each test concentration), and after positive reference compound (FullResponse, to achieve complete block), fit to the following equation: […]
To assess current run-down over the course of the experiment vehicle-only wells were utilized and the normalized current with vehicle-only (n.IVEH) was determined. To correct the compound response for run-down, the currents were corrected according to the following formula: […]
Compound inhibition was fitted to the following Hill Equation to estimate the half maximal inhibition concentration (IC50)
[formula] • where Y is the normalized run-down corrected inhibition relative to the vehicle control (equivalent to n.IRD_Correct), C the test compound concentration, IC50 the concentration of test compound to inhibit the sodium current by 50%, and h the Hill coefficient.

Chain of human Nav1.8 (Q9Y5Y9 whole entry): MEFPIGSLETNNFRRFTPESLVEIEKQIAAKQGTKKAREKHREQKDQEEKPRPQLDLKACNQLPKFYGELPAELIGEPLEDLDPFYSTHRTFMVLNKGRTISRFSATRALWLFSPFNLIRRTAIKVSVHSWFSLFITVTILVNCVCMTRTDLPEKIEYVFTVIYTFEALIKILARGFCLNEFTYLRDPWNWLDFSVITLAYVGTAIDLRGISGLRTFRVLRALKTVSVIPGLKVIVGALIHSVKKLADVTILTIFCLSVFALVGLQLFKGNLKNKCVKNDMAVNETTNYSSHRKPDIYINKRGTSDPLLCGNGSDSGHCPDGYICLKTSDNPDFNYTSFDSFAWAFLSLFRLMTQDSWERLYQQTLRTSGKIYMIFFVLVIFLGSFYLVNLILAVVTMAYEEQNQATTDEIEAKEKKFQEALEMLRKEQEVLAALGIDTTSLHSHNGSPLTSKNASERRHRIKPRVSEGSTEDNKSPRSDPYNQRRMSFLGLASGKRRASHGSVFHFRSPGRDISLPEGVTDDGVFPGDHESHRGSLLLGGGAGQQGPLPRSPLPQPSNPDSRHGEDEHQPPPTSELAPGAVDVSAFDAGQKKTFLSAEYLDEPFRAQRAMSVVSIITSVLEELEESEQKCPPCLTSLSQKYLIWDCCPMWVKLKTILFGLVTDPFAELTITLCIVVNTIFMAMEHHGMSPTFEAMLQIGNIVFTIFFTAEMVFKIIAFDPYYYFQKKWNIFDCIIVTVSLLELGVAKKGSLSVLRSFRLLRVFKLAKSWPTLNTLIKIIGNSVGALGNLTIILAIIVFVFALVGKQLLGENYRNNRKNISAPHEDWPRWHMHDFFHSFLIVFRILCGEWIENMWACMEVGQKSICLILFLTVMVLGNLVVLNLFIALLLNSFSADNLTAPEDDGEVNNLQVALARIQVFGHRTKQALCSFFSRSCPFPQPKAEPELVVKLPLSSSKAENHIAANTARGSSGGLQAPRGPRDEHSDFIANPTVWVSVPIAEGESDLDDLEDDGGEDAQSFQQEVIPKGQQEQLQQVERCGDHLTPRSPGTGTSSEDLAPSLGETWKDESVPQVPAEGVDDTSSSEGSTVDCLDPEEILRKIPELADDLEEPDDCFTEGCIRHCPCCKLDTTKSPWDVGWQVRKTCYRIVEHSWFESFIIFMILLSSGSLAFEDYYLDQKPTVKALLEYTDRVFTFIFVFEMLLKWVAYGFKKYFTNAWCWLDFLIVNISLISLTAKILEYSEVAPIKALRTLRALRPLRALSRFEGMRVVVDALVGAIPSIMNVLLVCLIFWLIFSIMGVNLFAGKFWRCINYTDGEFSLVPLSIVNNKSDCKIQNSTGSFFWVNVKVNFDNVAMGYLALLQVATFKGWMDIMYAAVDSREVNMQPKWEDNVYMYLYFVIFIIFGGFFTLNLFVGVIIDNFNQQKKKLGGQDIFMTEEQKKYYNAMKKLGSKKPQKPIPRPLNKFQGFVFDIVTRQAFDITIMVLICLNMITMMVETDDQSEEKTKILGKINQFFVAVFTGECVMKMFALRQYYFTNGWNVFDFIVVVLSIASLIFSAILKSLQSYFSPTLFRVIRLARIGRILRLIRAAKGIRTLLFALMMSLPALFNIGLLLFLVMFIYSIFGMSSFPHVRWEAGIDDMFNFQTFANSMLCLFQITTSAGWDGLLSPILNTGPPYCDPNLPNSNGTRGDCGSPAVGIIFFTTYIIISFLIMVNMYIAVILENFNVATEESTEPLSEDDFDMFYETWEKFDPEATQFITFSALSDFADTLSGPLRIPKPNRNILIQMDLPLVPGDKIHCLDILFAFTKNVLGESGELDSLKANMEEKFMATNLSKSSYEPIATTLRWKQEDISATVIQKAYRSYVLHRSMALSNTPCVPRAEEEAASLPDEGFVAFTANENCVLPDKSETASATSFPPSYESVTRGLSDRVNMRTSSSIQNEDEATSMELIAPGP
Chain of human Nav1.8 (Q07699 19-218 partner): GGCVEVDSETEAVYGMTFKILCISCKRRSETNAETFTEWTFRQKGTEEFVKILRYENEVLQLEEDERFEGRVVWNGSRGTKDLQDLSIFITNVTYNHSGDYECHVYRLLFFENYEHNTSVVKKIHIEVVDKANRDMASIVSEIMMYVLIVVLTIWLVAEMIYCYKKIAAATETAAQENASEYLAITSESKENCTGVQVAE

Row | SMILES | Nav1.8, pIC50 | IC50 [nM]
1 | O=C1c2cc(OC(F)(F)F)ccc2N2CN1c1ccc(=O)[nH]c1NCCCc1cc(F)ccc12 [Example 31, 8-Fluoro-2-(trifluoromethoxy)-10,11,12,13-tetrahydro-19H-5,18-methanodibenzo[f,i]pyrido[2,3,-b][1,4,8]triazacyclotridecine-15,19(14H)-dione] | 7.5 | 
2 | C[C@@H]1NCCc2[nH]c(=O)ccc2N2CN(c3cc(Cl)c(F)cc3C2=O)c2ccc(F)cc21 [Example 122, (10S)-3-chloro-2,8-difluoro-10-methyl-10,11,12,13-tetrahydro-19H-5,18-methanodibenzo[c,f]pyrido[3,2-j][1,5,9]triazacyclotridecine-15,19(14H)-dione] | 5.9 | 
3 | O=C1c2cc(C(F)(F)F)ncc2N2CN1c1ccc(=O)[nH]c1NCCCc1c2ccc(F)c1F [Example 38, 8,9-Diluoro-2-(trifluoromethyl)-10,11,12,13-tetrahydro-19H-5,18-methanodibenzo[i]dipyrido[2,3,-b:4′,3′-f][1,4,8]triazacyclotridecine-15,19(14H)-dione] | 6.8 | 
4 | O=C1c2cc(F)c(C(F)(F)F)cc2N2CN1c1ccc(=O)[nH]c1NCCCc1cc(F)ccc12 [Example 32, 2,8-Difluoro-3-(trifluoromethyl)-10,11,12,13-tetrahydro-19H-5,18-methanodibenzo[f,i]pyrido[2,3,-b][1,4,8]triazacyclotridecine-15,19(14H)-dione] | 8.4 | 
5 | Cl.N#Cc1cc2c(cc1Cl)C(=O)N1CN2c2ccc(F)c(F)c2CNCCc2[nH]c(=O)ccc21 [Example 72, 2-Chloro-8,9-difluoro-15,19-dioxo-10,11,12,13,14,15-hexahydro-19H-5,18-methanodibenzo-[c,f]pyrido[3,2-j][1,5,9]triazacyclotridecine-3-carbonitrile hydrochloride] | 7.5 | 
6 | CC[C@@H]1NCCc2[nH]c(=O)ccc2N2CN(c3cc(C(F)(F)F)c(F)cc3C2=O)c2ccc(F)cc21 [Example 128, (10S)-10-ethyl-2,8-difluoro-3-(trifluoromethyl)-10,11,12,13-tetrahydro-19H-5,18-methanodibenzo[c,f]pyrido[3,2-j][1,5,9]triazacyclotridecine-15,19(14H)-dione] |  | 631
7 | C[C@H]1CCNc2[nH]c(=O)ccc2N2CN(c3cc(C(F)(F)F)c(F)cc3C2=O)c2ccc(F)c(F)c21 [Example 132, (10S)-2,8,9-trifluoro-10-methyl-3-(trifluoromethyl)-10,11,12,13-tetrahydro-19H-5,18-methanodibenzo[f,i]pyrido[2,3-b][1,4,8]triazacyclotridecine-15,19(14H)-dione] |  | 6.31
8 | O=C1c2ccc(C(F)(F)F)cc2N2CN1c1ccc(=O)[nH]c1CCCCOc1cc(F)ccc12 [Example 18, 3^4-Fluoro-2^7-(trifluoromethyl)-1^1,1^2,2^1,2^2,2^3,2^4-hexahydro-4-oxa-2(3,1)-quinazolina-1(5,6)-pyridina-3(1,2)-benzenacyclooctaphane-1^2,2^4-dione] | 6.5 | 
9 | O=C1c2cc(C(F)(F)F)ccc2N2CN1c1ccc(=O)[nH]c1CCCCc1cc(F)ccc12 [Example 4, 8-Fluoro-2-(trifluoromethyl)-10,11,12,13-tetrahydro-19H-5,18-methanodibenzo[b,l]pyridino[3,2-f][1,5]diazacyclotridecine-15,19(14H)-dione] | 6.8 | 
10 | CN1CCCCc2cc(F)ccc2N2CN(C(=O)c3ccc(C(F)(F)F)cc32)c2ccc(=O)[nH]c21 [Example 13, 3^4-Fluoro-8-methyl-2^7-(trifluoromethyl)-1^1,1^2,2^1,2^2,2^3,2^4-hexahydro-8-aza-2(3,1)-quinazolina-1(5,6)-pyridina-3(1,2)-benzenacyclooctaphan-1^2,2^4-dione] | 7.3 | 
11 | Cl.N#Cc1cc2c(cc1F)C(=O)N1CN2c2ccc(OC(F)(F)F)cc2CNCCc2[nH]c(=O)ccc21 [Example 88, 2-Fluoro-15,19-dioxo-8-(trifluoromethoxy)-10,11,12,13,14,15-hexahydro-19H-5,18-methanodibenzo[c,f]pyrido[3,2-j][1,5,9]triazacyclotridecine-3-carbonitrile hydrochloride] | 7.7 | 
12 | CC1(C)CNCc2cc(F)ccc2N2CN(C(=O)c3cc(F)c(C(F)(F)F)cc32)c2ccc(=O)[nH]c21 [Example 134, 2,8-Difluoro-13,13-dimethyl-3-(trifluoromethyl)-10,11,12,13-tetrahydro-19H-5,18-methanodibenzo[c,f]pyrido[3,2-j][1,5,9]triazacyclotridecine-15,19(14H)-dione] | 7.3 | 
13 | O=C1c2cc(C(F)(F)F)ccc2N2CN1c1ccc(=O)[nH]c1CCCc1cc(F)ccc12 [Example 2, 14-Fluoro-8-(trifluoromethyl)-17,18-dihydro-1H,6H-5,11-methanodibenzo[b,k]pyridino[3,2-f][1,5]diazacyclododecine-2,6(16H)-dione] | 6.0 | 
14 | N#Cc1cc2c(cc1F)C(=O)N1CN2c2ccc(F)cc2CCCNc2[nH]c(=O)ccc21 [Example 95, 2,8-Difluoro-15,19-dioxo-10,11,12,13,14,15-hexahydro-19H-5,18-methanodibenzo[f,i]pyrido-[2,3-b][1,4,8]triazacyclotridecine-3-carbonitrile] | 7.5 | 
15 | CC1NCCc2[nH]c(=O)ccc2N2CN(c3ccc(C(F)(F)F)cc3C2=O)c2ccc(F)cc21 (racemic) [Example 114, 8-Fluoro-10-methyl-2-(trifluoromethyl)-10,11,12,13-tetrahydro-19H-5,18-methanodibenzo[c,f]-pyrido[3,2-j][1,5,9]triazacyclotridecine-15,19(14H)-dione hydrochloride] | 6.8 | 
16 | Cl.O=C1c2cc(F)c(C(F)(F)F)cc2N2CN1c1ccc(=O)[nH]c1CCNCc1c(Cl)cccc12 [Example 81, 9-Chloro-2-fluoro-3-(trifluoromethyl)-10,11,12,13-tetrahydro-19H-5,18-methanodibenzo-[c,f]pyrido[3,2-j][1,5,9]triazacyclotridecine-15,19(14H)-dione hydrochloride] | 8.5 | 
17 | Cl.O=C1c2cc(F)c(F)cc2N2CN1c1ccc(=O)[nH]c1CCNCc1c(C(F)F)cccc12 [Example 79, 9-(Difluoromethyl)-2,3-difluoro-10,11,12,13-tetrahydro-19H-5,18-methanodibenzo[c,f]pyrido[3,2-j][1,5,9]triazacyclotridecine-15,19(14H)-dione hydrochloride] | 7.1 | 
18 | Cl.O=C1c2cc(F)c(C(F)(F)F)cc2N2CN1c1ccc(=O)[nH]c1CCNCCc1cc(F)ccc12 [Example 111, 2^6,3^4-Difluoro-2^7-(trifluoromethyl)-1^1,1^2,2^1,2^2,2^3,2^4-hexahydro-6-aza-2(3,1)-quinazolina-1(5,6)-pyridina-3(1,2)-benzenacyclooctaphane-1^2,2^4-dione hydrochloride] | 7.1 | 
19 | O=C1c2cc(C(F)(F)F)cnc2N2CN1c1ccc(=O)[nH]c1CC/C=C\Cc1cc(F)ccc12 [Example 24, 3^4-Fluoro-2^6-(trifluoromethyl)-1^1,1^2,2^1,2^2,2^3,2^4-hexahydro-2(3,1)-pyrido[2,3-d]pyrimidina-1(5,6)-pyridina-3(1,2)-benzenacyclooctaphan-5-ene-1^2,2^4-dione] | 7.7 | 

Reference: US20250368647A1, “NITROGEN CONTAINING CONDENSED 2,3-DIHYDROQUINAZOLINONE COMPOUNDS AS NAV1.8 INHIBITORS” (GLAXOSMITHKLINE INTELLECTUAL PROPERTY DEVELOPMENT LIMITED, priority 2022, published 2025)
